In PubChem BioAssay (NCI) one finds GI50 and TGI data, which are given here for twelve molecules.

Several values for one entry are separate records, joined by “and”; a condition that tells them apart may be missing. Identical values can stand only once.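 Five concentrations, 48 hours, 96-well plates. Here, GI50 denotes the concentration required for 50% inhibition of growth. TGI denotes the concentration required for complete inhibition of growth.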

Some test systems named below: NCI-H460 lung; HL-60(TB) leukemia; OVCAR-4 ovarian; NCI/ADR-RES ovarian; SNB-75 CNS; HCT-116 colon; HCT-15 colon; OVCAR-3 ovarian; A549 NSCLC; MDA-MB-435.
Common to all, as to assay: inhibition of tumour cell growth, NCI panel, 48 h

As to `COc1ccc2c(c1)[nH]c(=O)c1c3cccnc3cn21`, the GI50 in the test on NCI-H460 lung is 0.0363 µM; in the test with HL-60(TB) leukemia it was 0.0262 µM; with OVCAR-4 ovarian, 0.0735 µM; in the test on NCI/ADR-RES ovarian, 0.0231 µM; with SNB-75 CNS, 0.031 µM; in the test with HCT-116 colon, 0.0496 µM. Also, the figures for the GI50 in the test on HCT-15 colon, in the test with OVCAR-3 ovarian and in the test on A549 NSCLC were 0.043 µM, 0.0251 µM and 0.0479 µM, respectively. Besides, the TGI with NCI-H460 lung is 2.06 µM; in the test with HL-60(TB) leukemia, 1.21 µM; in the test on OVCAR-4 ovarian it was over 100 µM; with NCI/ADR-RES ovarian it was 0.0571 µM; with SNB-75 CNS, 57.3 µM; in the test with HCT-116 colon, 14.3 µM. Further, the TGI in the test on HCT-15 colon is 29.3 µM; in the test with OVCAR-3 ovarian it was 0.0588 µM; with A549 NSCLC, 24.4 µM.

As to `O=S(=O)(O)C(F)(F)C(F)(F)C(F)(F)C(F)(F)F`, the TGI with NCI-H460 lung, with HL-60(TB) leukemia, with OVCAR-4 ovarian, in the test with SNB-75 CNS, in the test with HCT-116 colon and in the test with HCT-15 colon was over 100 µM in each case. The TGI in the test with OVCAR-3 ovarian and with A549 NSCLC was over 100 µM in each case.

On to `Cc1ccccc1C(C#N)/C(=N/NC(=O)c1cc2ccccc2cc1O)C(=O)Nc1cccc(Cl)c1` (stereo not drawn), for which the TGI was over 100 µM in the test with NCI-H460 lung; 26.8 µM with HL-60(TB) leukemia; 87.7 µM in the test on OVCAR-4 ovarian; 35.6 µM in the test on SNB-75 CNS; over 100 µM in the test with HCT-116 colon; over 100 µM in the test on HCT-15 colon. The TGI was 92.7 µM in the test with OVCAR-3 ovarian and over 100 µM in the test on A549 NSCLC.

As to `COC(=O)Nc1ccc2ccc3c(NC(=O)OC)ccc4ccc1c2c43` (tested in a mixture with another compound), the GI50 with NCI-H460 lung was 4.79 µM; in the test on HL-60(TB) leukemia, 9.95 µM; in the test with OVCAR-4 ovarian it was 15.7 µM; in the test with NCI/ADR-RES ovarian, 4.59 µM; with SNB-75 CNS, 12.6 µM; in the test with HCT-116 colon it was 5.43 µM. For the same molecule, the results for the GI50 in the test on HCT-15 colon, in the test with OVCAR-3 ovarian and with A549 NSCLC were 2.63 µM, 10.6 µM and 7.78 µM, respectively. The TGI is over 50 µM with NCI-H460 lung; over 50 µM with HL-60(TB) leukemia; over 50 µM in the test on OVCAR-4 ovarian; 19.2 µM with NCI/ADR-RES ovarian; over 50 µM with SNB-75 CNS; over 50 µM in the test with HCT-116 colon. The TGI with HCT-15 colon was over 50 µM; with OVCAR-3 ovarian, 45.2 µM; in the test with A549 NSCLC it was over 50 µM.

As to `CCCCCCn1c(-c2ccc(C(=O)O/N=C(\N)c3ccc(OC)cc3)cc2)nc(-c2ccccc2)c1-c1ccccc1`, the GI50 in the test with NCI-H460 lung was 1.85 µM; in the test with MDA-MB-435, 1.66 µM; in the test with NCI/ADR-RES ovarian, 1.18 µM; with SNB-75 CNS it was 1.29 µM; with HCT-116 colon it was 1.4 µM; with HCT-15 colon, 1.25 µM. In addition, in the test with A549 NSCLC, the GI50 is 0.777 µM. The TGI in the test with NCI-H460 lung worked out at 3.93 µM; in the test with MDA-MB-435, 3.2 µM; in the test on NCI/ADR-RES ovarian, 3.41 µM; in the test on SNB-75 CNS, 3.09 µM; with HCT-116 colon, 2.89 µM; in the test with HCT-15 colon, 2.87 µM. The TGI with A549 NSCLC came out at 3.36 µM.

As for `C[C@]12CC[C@H]3[C@@H](CCC4=CC(=O)CC[C@@H]43)[C@@H]1CC[C@@H]2OC1(O)C(=O)c2ccccc2C1=O`, the TGI in the test with NCI-H460 lung was over 100 µM; with MDA-MB-435, over 100 µM; with OVCAR-4 ovarian, over 100 µM; in the test with NCI/ADR-RES ovarian it was over 100 µM; in the test on SNB-75 CNS, over 100 µM; with HCT-116 colon, 30.1 µM. For the same molecule, the TGI with HCT-15 colon, in the test on OVCAR-3 ovarian and in the test on A549 NSCLC was over 100 µM throughout.

For the molecule `Cc1cccc(C(C)O)n1` (stereo not drawn), the TGI with NCI-H460 lung, with HL-60(TB) leukemia, in the test with OVCAR-4 ovarian, in the test on NCI/ADR-RES ovarian, in the test with SNB-75 CNS and with HCT-116 colon was over 100 µM in each case. The TGI with HCT-15 colon, in the test with OVCAR-3 ovarian and with A549 NSCLC was over 100 µM each time.

For the molecule `CCOC(=O)c1sc(=S)c2c(C(=O)c3ccccc3)c(C(=O)c3ccccc3)sc2c1C(=O)OCC`, the GI50 was 21 µM in the test with NCI-H460 lung; 3.34 µM in the test on MDA-MB-435; 2.71 µM in the test on HL-60(TB) leukemia; 9.58 µM in the test on OVCAR-4 ovarian; 22.6 µM in the test on SNB-75 CNS; 4.16 µM with HCT-116 colon. In addition, the values for the GI50 with HCT-15 colon, in the test on OVCAR-3 ovarian and in the test with A549 NSCLC were 4.1 µM, 2.01 µM and 5.17 µM, respectively. The TGI with NCI-H460 lung was over 100 µM; in the test on MDA-MB-435, 9.66 µM; in the test on HL-60(TB) leukemia, 7.58 µM; in the test with OVCAR-4 ovarian, over 100 µM; in the test on SNB-75 CNS, over 100 µM; with HCT-116 colon it was over 100 µM. In addition, the TGI with HCT-15 colon was over 100 µM; in the test on OVCAR-3 ovarian, 5.93 µM; in the test with A549 NSCLC, over 100 µM.

For the molecule `CCc1ccccc1NC(=O)CCc1nc(=S)[nH][nH]1`, the TGI in the test with NCI-H460 lung, in the test on HL-60(TB) leukemia, in the test on OVCAR-4 ovarian, in the test on SNB-75 CNS, in the test with HCT-116 colon and in the test with HCT-15 colon was over 100 µM each time. The TGI in the test on OVCAR-3 ovarian and with A549 NSCLC was over 100 µM in each case.

`CC1CCC2(OC1)OC1CC3C4CC=C5CC(OC6OC(CO)C(OC7OC(C)C(OC8OC(C)C(O)C(O)C8O)C(O)C7O)C(O)C6OC6OC(C)C(O)C(O)C6O)CCC5(C)C4CCC3(C)C1C2C` (stereo not drawn): the TGI with NCI-H460 lung was 3.25 µM; in the test with MDA-MB-435, 1.18 µM; with OVCAR-4 ovarian, 1.33 µM; in the test on SNB-75 CNS, 1.64 µM; with HCT-116 colon, 1.92 µM; in the test with HCT-15 colon, 2.92 µM. Further, the TGI came out at 3.31 µM in the test on OVCAR-3 ovarian and 1.39 µM in the test with A549 NSCLC.

Take `CCCCCCC(C)CC(CCCCCC)NCCOC(=O)c1ccc([N+](=O)[O-])cc1` (stereo not drawn): the GI50 with NCI-H460 lung is 13.7 µM and 5.28 µM; in the test with MDA-MB-435 it was 11.6 µM and 5.17 µM; with OVCAR-3 ovarian, 7.59 µM and 2.95 µM. Moreover, the TGI with NCI-H460 lung is 29.4 µM and 18.4 µM; in the test on MDA-MB-435, 24.9 µM and 20.1 µM; in the test on OVCAR-4 ovarian, 26.5 µM and 26.9 µM; in the test with NCI/ADR-RES ovarian, 58.8 µM and 32.1 µM; in the test on SNB-75 CNS, 30.4 µM and 33.4 µM; with HCT-116 colon, 28.1 µM and 24.1 µM. Besides, the TGI is 33.1 µM and 26.7 µM in the test on HCT-15 colon; 23.6 µM and 17.5 µM with OVCAR-3 ovarian; 30.3 µM and 29.8 µM in the test with A549 NSCLC.

Turning to `CC(=O)/C=C1/c2ccccc2N(C(C)=O)C1O` (stereo not drawn), the TGI in the test with NCI-H460 lung, with HL-60(TB) leukemia, with OVCAR-4 ovarian, in the test on SNB-75 CNS, with HCT-116 colon and in the test on HCT-15 colon was over 100 µM throughout. The TGI in the test with OVCAR-3 ovarian and in the test on A549 NSCLC was over 100 µM throughout.
